Test results: patent US12522583B2, “Benzimidazole derivatives and aza-benzimidazole derivatives as Janus kinase 2 inhibitors and uses thereof” (Dana-Farber Cancer Institute, Inc., priority 2018, dated 2026)

How the values were obtained:
Test in all cases: KINOMEscan
Assay type in all cases: binding
[1] = target: ABL1(H396P)-nonphosphorylated (Homo sapiens (Human), UniProt P00519, H396P); settings: read-out: percent control
From the text: (§1) Example 2. In Vitro Kinase Selectivity Profiling of the Compounds of the Present Disclosure

AMPK-alpha2 = AMPK-alpha2 (Homo sapiens (Human), UniProt P54646); settings: read-out: percent control
From the text: as §1

ARK5 = ARK5 (Homo sapiens (Human), UniProt O60285); settings: read-out: percent control
From the text: as §1

BIKE = BIKE (Homo sapiens (Human), UniProt Q9NSY1); settings: read-out: percent control
From the text: as §1

BTK = BTK (Homo sapiens (Human), UniProt Q06187); settings: read-out: percent control
From the text: as §1

CAMK1B = CAMK1B (Homo sapiens (Human), UniProt Q6P2M8); settings: read-out: percent control
From the text: as §1

CAMK1D = CAMK1D (Homo sapiens (Human), UniProt Q8IU85); settings: read-out: percent control
From the text: as §1

CASK = CASK (Homo sapiens (Human), UniProt O14936); settings: read-out: percent control
From the text: as §1

CDK2 = CDK2 (Homo sapiens (Human), UniProt P24941); settings: read-out: percent control
From the text: as §1

CDK3 = CDK3 (Homo sapiens (Human), UniProt Q00526); settings: read-out: percent control
From the text: as §1

CDK4 = CDK4 (Homo sapiens (Human), UniProt P11802); settings: read-out: percent control
From the text: as §1

CDK9 = CDK9 (Homo sapiens (Human), UniProt P50750); settings: read-out: percent control
From the text: as §1

CIT = CIT (Homo sapiens (Human), UniProt O14578); settings: read-out: percent control
From the text: as §1

CSNK1G3 = CSNK1G3 (Homo sapiens (Human), UniProt Q9Y6M4); settings: read-out: percent control
From the text: as §1

DCAMKL2 = DCAMKL2 (Homo sapiens (Human), UniProt Q8N568); settings: read-out: percent control
From the text: as §1

DLK = DLK (Homo sapiens (Human), UniProt Q12852); settings: read-out: percent control
From the text: as §1

EGFR(L858R) = EGFR(L858R) (Homo sapiens (Human), UniProt P00533, L858R); settings: read-out: percent control
From the text: as §1

EPHB1 = EPHB1 (Homo sapiens (Human), UniProt P54762); settings: read-out: percent control
From the text: as §1

FER = FER (Homo sapiens (Human), UniProt P16591); settings: read-out: percent control
From the text: as §1

FLT3(D835V) = FLT3(D835V) (Homo sapiens (Human), UniProt P36888, D835V); settings: read-out: percent control
From the text: as §1

FLT3(ITD) = settings: 1 μM
From the text: as §1

GRK4 = GRK4 (Homo sapiens (Human), UniProt P32298); settings: read-out: percent control
From the text: as §1

HIPK2 = HIPK2 (Homo sapiens (Human), UniProt Q9H2X6); settings: read-out: percent control
From the text: as §1

[2] = target: JAK2(JH1domain-catalytic) (Homo sapiens (Human), UniProt O60674); settings: read-out: percent control
From the text: as §1

KIT(V559D, T670I) = KIT(V559D, T670I) (Homo sapiens (Human), UniProt P10721, T670I/V559D); settings: read-out: percent control
From the text: as §1

MAP4K5 = MAP4K5 (Homo sapiens (Human), UniProt Q9Y4K4); settings: read-out: percent control
From the text: as §1

MEK1 = MEK1 (Homo sapiens (Human), UniProt Q02750); settings: read-out: percent control
From the text: as §1

MST1 = MST1 (Homo sapiens (Human), UniProt Q13043); settings: read-out: percent control
From the text: as §1

OSR1 = OSR1 (Homo sapiens (Human), UniProt O95747); settings: read-out: percent control
From the text: as §1

PFTAIRE2 = PFTAIRE2 (Homo sapiens (Human), UniProt Q96Q40); settings: read-out: percent control
From the text: as §1

PKNB(M.tuberculosis) = PKNB(M.tuberculosis) (Mycobacterium tuberculosis (strain ATCC 25618 / H37Rv), UniProt P9WI81); settings: read-out: percent control
From the text: as §1

RIPK1 = RIPK1 (Homo sapiens (Human), UniProt Q13546); settings: read-out: percent control
From the text: as §1

ROCK1 = ROCK1 (Homo sapiens (Human), UniProt Q13464); settings: read-out: percent control
From the text: as §1

SGK2 = SGK2 (Homo sapiens (Human), UniProt Q9HBY8); settings: read-out: percent control
From the text: as §1

SRC = SRC (Homo sapiens (Human), UniProt P12931); settings: read-out: percent control
From the text: as §1

TGFBR2 = TGFBR2 (Homo sapiens (Human), UniProt P37173); settings: read-out: percent control
From the text: as §1

TIE2 = TIE2 (Homo sapiens (Human), UniProt Q02763); settings: read-out: percent control
From the text: as §1

TLK2 = TLK2 (Homo sapiens (Human), UniProt Q86UE8); settings: read-out: percent control
From the text: as §1

ULK3 = ULK3 (Homo sapiens (Human), UniProt Q6PHR2); settings: read-out: percent control
From the text: as §1

WEE1 = WEE1 (Homo sapiens (Human), UniProt P30291); settings: read-out: percent control
From the text: as §1

Sequence of WEE1 (P30291 whole entry): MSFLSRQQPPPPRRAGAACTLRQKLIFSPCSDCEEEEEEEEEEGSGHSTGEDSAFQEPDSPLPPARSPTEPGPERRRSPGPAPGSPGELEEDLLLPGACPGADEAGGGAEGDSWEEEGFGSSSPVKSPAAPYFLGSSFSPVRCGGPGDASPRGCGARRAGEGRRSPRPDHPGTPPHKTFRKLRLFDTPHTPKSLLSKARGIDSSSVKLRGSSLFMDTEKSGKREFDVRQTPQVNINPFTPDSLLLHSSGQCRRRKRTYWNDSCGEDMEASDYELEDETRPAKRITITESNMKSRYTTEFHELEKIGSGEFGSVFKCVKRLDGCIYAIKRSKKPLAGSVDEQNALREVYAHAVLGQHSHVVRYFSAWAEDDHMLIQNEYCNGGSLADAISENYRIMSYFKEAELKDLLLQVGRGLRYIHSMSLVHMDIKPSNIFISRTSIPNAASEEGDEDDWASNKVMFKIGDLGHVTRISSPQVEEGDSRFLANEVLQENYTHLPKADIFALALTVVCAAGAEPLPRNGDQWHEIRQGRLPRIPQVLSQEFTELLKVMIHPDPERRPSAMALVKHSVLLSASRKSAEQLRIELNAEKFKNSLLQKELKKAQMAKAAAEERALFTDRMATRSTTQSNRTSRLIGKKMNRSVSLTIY
Sequence of HIPK2 (Q9H2X6 whole entry): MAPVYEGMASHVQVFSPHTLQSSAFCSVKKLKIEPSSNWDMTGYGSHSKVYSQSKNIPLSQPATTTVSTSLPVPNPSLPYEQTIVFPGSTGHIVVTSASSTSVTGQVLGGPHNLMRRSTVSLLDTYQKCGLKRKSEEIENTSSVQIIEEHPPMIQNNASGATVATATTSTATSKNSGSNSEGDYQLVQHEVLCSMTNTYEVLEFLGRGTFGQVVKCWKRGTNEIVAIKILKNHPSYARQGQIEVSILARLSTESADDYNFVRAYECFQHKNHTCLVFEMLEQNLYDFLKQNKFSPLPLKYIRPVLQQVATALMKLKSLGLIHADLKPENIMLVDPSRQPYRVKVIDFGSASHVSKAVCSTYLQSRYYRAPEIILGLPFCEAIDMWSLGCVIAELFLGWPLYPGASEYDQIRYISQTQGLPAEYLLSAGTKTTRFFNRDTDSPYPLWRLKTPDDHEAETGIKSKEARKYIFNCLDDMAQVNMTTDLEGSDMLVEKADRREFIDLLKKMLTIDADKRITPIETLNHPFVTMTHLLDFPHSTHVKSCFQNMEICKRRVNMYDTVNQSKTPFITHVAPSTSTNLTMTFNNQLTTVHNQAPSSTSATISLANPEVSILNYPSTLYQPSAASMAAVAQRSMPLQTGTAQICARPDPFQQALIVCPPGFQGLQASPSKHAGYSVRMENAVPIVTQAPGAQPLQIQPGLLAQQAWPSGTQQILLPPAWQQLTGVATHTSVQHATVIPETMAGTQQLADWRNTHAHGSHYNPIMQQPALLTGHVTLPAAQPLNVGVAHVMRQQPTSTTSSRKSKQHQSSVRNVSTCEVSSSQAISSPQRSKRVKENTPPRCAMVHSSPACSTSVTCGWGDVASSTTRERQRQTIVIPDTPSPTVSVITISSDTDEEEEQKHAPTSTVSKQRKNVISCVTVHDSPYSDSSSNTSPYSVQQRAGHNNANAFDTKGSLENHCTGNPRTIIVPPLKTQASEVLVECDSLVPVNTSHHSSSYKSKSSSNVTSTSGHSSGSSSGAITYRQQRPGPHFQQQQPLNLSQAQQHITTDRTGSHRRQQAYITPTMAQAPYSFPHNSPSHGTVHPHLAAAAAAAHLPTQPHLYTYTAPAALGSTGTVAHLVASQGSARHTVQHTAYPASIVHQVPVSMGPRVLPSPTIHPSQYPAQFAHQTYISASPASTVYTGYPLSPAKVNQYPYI
Sequence of PFTAIRE2 (Q96Q40 whole entry): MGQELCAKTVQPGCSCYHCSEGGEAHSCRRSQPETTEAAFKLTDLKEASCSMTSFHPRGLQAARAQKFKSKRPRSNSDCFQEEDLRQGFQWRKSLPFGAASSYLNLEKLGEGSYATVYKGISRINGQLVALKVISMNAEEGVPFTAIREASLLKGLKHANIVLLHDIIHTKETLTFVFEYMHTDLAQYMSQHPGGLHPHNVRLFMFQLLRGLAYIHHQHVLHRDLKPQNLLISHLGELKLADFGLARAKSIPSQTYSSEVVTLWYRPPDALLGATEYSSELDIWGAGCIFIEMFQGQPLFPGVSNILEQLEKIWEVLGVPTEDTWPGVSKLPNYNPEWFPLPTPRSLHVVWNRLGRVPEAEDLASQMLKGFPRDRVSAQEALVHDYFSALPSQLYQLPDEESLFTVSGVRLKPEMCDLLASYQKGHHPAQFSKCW
Sequence of ULK3 (Q6PHR2 whole entry): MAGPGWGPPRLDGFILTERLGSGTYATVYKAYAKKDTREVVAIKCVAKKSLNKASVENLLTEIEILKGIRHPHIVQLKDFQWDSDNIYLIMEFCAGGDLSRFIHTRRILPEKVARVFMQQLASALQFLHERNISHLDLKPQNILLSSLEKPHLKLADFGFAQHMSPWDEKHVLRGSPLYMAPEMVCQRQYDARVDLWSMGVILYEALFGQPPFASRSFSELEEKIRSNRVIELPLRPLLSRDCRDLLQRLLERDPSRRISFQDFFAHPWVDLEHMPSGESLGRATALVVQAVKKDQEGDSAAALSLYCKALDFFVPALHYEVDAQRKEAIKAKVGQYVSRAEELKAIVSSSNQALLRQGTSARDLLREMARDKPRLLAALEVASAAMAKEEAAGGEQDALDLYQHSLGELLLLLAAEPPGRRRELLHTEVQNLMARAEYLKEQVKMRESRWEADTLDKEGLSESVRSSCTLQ
Sequence of JAK2(JH1domain-catalytic) (O60674 849-1124 limits assumed): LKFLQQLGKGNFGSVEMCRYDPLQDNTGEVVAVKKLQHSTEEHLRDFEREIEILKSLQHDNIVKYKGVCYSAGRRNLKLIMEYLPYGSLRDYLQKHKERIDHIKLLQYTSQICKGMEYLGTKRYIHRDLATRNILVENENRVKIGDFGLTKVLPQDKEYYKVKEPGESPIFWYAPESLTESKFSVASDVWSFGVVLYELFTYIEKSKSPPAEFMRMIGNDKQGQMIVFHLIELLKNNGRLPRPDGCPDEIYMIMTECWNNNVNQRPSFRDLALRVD
Sequence of EPHB1 (P54762 18-984): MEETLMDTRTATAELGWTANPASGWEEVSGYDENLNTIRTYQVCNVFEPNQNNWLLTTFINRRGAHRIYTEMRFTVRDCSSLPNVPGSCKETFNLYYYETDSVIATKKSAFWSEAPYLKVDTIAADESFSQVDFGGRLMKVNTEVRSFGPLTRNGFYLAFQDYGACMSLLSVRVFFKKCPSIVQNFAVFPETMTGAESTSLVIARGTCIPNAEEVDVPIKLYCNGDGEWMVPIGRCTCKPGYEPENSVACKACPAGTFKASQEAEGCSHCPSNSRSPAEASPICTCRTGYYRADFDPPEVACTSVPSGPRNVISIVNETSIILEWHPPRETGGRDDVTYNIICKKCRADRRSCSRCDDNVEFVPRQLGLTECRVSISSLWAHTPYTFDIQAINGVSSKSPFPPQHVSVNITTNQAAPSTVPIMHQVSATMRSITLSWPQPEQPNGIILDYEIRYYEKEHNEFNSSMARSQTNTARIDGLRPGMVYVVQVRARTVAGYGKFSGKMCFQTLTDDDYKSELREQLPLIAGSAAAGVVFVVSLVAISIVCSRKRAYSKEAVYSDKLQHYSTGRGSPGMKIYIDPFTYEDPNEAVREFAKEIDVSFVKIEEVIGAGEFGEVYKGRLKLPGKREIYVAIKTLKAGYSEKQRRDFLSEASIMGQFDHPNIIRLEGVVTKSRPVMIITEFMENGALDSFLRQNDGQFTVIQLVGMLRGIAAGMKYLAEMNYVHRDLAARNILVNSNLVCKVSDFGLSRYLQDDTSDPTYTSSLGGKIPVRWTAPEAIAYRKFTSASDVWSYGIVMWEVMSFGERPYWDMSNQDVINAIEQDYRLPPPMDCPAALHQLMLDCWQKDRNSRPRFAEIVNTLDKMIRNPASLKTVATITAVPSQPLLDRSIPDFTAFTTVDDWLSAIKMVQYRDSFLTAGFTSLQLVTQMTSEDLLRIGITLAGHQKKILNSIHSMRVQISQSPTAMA
Sequence of SGK2 (Q9HBY8 whole entry): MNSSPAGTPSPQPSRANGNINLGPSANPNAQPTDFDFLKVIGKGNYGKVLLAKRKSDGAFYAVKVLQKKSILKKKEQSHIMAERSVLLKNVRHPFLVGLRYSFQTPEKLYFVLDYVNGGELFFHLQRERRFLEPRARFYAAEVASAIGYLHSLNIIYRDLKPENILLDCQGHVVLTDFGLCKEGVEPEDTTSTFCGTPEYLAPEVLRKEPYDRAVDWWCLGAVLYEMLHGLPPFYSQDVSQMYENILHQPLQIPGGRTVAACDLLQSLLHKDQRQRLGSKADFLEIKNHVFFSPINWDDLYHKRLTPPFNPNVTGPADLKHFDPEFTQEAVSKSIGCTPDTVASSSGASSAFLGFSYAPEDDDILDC
Sequence of MST1 (Q13043 whole entry): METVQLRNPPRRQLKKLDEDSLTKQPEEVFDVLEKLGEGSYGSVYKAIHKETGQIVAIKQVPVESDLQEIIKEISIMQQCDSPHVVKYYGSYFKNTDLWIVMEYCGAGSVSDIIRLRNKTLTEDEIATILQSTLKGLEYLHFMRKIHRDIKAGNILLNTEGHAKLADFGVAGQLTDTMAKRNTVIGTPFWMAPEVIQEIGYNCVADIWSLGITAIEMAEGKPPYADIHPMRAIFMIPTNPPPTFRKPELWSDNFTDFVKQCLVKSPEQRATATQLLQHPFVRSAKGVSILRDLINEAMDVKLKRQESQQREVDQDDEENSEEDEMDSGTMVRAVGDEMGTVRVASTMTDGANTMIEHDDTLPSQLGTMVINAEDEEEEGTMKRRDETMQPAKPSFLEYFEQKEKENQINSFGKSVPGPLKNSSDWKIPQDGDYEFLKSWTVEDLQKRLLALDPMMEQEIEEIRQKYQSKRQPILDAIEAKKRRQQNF

CCN1CCN(Cc2ccc(Nc3nc4ccc(Oc5ccnc(NC(C)=O)c5)cc4n3C)cc2C(F)(F)F)CC1 [Compound I-2] gave a remaining binding at 1 µM [1] of 0.05%, a remaining binding at 1 µM (AMPK-alpha2) of 100% and a remaining binding at 1 µM (ARK5) of 100%. The remaining binding at 1 µM (BIKE) was 88%, the remaining binding at 1 µM (BTK) was 78% and the remaining binding at 1 µM (CAMK1B) was 50%. The remaining binding at 1 µM (CAMK1D) was 85%, the remaining binding at 1 µM (CASK) was 78% and the remaining binding at 1 µM (CDK2) was 100%. It also gave a remaining binding at 1 µM (CDK3) of 100%, a remaining binding at 1 µM (CDK4) of 94% and a remaining binding at 1 µM (CDK9) of 100%. For the same compound, the remaining binding at 1 µM (CIT) was 90%, the remaining binding at 1 µM (CSNK1G3) was 89% and the remaining binding at 1 µM (DCAMKL2) was 89%. The remaining binding at 1 µM (DLK) was 100%, the remaining binding at 1 µM (EGFR(L858R)) was 83% and the remaining binding at 1 µM (EPHB1) was 94%. It also gave a remaining binding at 1 µM (FER) of 91%, a remaining binding at 1 µM (FLT3(D835V)) of 51% and a percent control (FLT3(ITD)) of 24%. The remaining binding at 1 µM (GRK4) was 99%, the remaining binding at 1 µM (HIPK2) was 100% and the remaining binding at 1 µM [2] was 16%. For the same compound, the remaining binding at 1 µM (KIT(V559D, T670I)) was 1.2%, the remaining binding at 1 µM (MAP4K5) was 89% and the remaining binding at 1 µM (MEK1) was 94%. The remaining binding at 1 µM (MST1) was 93%, the remaining binding at 1 µM (OSR1) was 100% and the remaining binding at 1 µM (PFTAIRE2) was 75%. The remaining binding at 1 µM (PKNB(M.tuberculosis)) was 80%, the remaining binding at 1 µM (RIPK1) was 88% and the remaining binding at 1 µM (ROCK1) was 100%. For the same compound, the remaining binding at 1 µM (SGK2) was 89%, the remaining binding at 1 µM (SRC) was 61% and the remaining binding at 1 µM (TGFBR2) was 90%. The remaining binding at 1 µM (TIE2) was 81%, the remaining binding at 1 µM (TLK2) was 98% and the remaining binding at 1 µM (ULK3) was 92%. The remaining binding at 1 µM (WEE1) was 95%.

In the case of CCN1CCN(Cc2ccc(Nc3nc4ccc(Oc5ccnc(NC(C)=O)c5)c(C)c4n3C)cc2C(F)(F)F)CC1 [Compound I-6, N-(4-(2-(4-((4-ethylpiperazin-1-yl)methyl)-3-(trifluoromethyl)phenylamino)-1,7-dimethyl-1H-benzo[d]imidazol-6-yloxy)pyridin-2-yl)acetamide], the remaining binding at 1 µM [1] was 1.1%, the remaining binding at 1 µM (AMPK-alpha2) was 92% and the remaining binding at 1 µM (ARK5) was 100%. For the same compound, the remaining binding at 1 µM (BIKE) was 96%, the remaining binding at 1 µM (BTK) was 88% and the remaining binding at 1 µM (CAMK1B) was 43%. For the same compound, the remaining binding at 1 µM (CAMK1D) was 100%, the remaining binding at 1 µM (CASK) was 87% and the remaining binding at 1 µM (CDK2) was 86%. For the same compound, the remaining binding at 1 µM (CDK3) was 74%, the remaining binding at 1 µM (CDK4) was 92% and the remaining binding at 1 µM (CDK9) was 96%. It also gave a remaining binding at 1 µM (CIT) of 79%, a remaining binding at 1 µM (CSNK1G3) of 94% and a remaining binding at 1 µM (DCAMKL2) of 100%. For the same compound, the remaining binding at 1 µM (DLK) was 100%, the remaining binding at 1 µM (EGFR(L858R)) was 97% and the remaining binding at 1 µM (EPHB1) was 95%. The remaining binding at 1 µM (FER) was 100%, the remaining binding at 1 µM (FLT3(D835V)) was 40% and the percent control (FLT3(ITD)) was 11%. The remaining binding at 1 µM (GRK4) was 81%, the remaining binding at 1 µM (HIPK2) was 86% and the remaining binding at 1 µM [2] was 29%. The remaining binding at 1 µM (KIT(V559D, T670I)) was 1.5%, the remaining binding at 1 µM (MAP4K5) was 88% and the remaining binding at 1 µM (MEK1) was 87%. For the same compound, the remaining binding at 1 µM (MST1) was 100%, the remaining binding at 1 µM (OSR1) was 87% and the remaining binding at 1 µM (PFTAIRE2) was 100%. The remaining binding at 1 µM (PKNB(M.tuberculosis)) was 82%, the remaining binding at 1 µM (RIPK1) was 96% and the remaining binding at 1 µM (ROCK1) was 83%. The remaining binding at 1 µM (SGK2) was 85%, the remaining binding at 1 µM (SRC) was 32% and the remaining binding at 1 µM (TGFBR2) was 81%. It also gave a remaining binding at 1 µM (TIE2) of 36%, a remaining binding at 1 µM (TLK2) of 97% and a remaining binding at 1 µM (ULK3) of 79%. The remaining binding at 1 µM (WEE1) was 100%.
